In one series the test system is aldosterone. As to the kind of experiment: aldosterone-antagonistic properties in adrenalectomised rats (urine volume, sodium and potassium excretion). It counts as in vivo, adrenalectomised female Holtzmann rats. Particulars: for response vs control in vivo at 1 mg/kg / response vs control in vivo at 10 mg/kg / response vs control in vivo at 3 mg/kg / response vs control in vivo at 0.1 mg/kg: Rattus norvegicus, po. The procedure: If benzodiazepine derivatives of formula I are administered to the animals before the treatment with aldosterone, then there is observed, in comparison with the animals which are treated only with aldosterone (control animals), a pronounced increase of the sodium excretion (i.e. the sodium retention caused by aldosterone is antagonised), whereas the potassium excretion and the urine volume are influenced to a lesser extent.
The standard experiment is carried out as follows:
Female Holtzmann rates (150-180 g) are bilaterally adrenalectomised 70 to 74 hours before the beginning of the experiment. After the operation, the animals receive a customary rat dry feed and 0.9% sodium chloride solution for drinking. 16-17 hours before the beginning of the experiment the feed is removed from the animals, but they can still drink, as before, 0.9% sodium chloride solution ad libitum. At the beginning of the experiment the substance to be tested as an aldosterone-antagonist is administered to the animals by means of a stomach probe. 30 minutes later the animals receive a subcutaneous injection of […] of aldosterone. After a further 90 minutes, the urinary bladders of the animals are emptied by careful suprapublic pressure, whereupon the animals are placed individually in metabolic cages without food and without drink. The urine of the animals is then collected for 3hours, whereupon their urinary bladders are once more emptied. The spontaneously excreted urine and the remaining urine obtained at the conclusion of the experiment by pressing-out the urinary bladders are collected in graduated centrifuge glasses. Sodium and potassium concentrations in the urine are determined with a flame photometer.
(§1) The following Table contains results obtained in the previously described experiment with representative benzodiazepine derivatives of formula I. In this Table there are given for each benzodiazepine derivative in question the dosage administered (in mg/kg p.o.) as well as the percentage variation in the urine volume, the sodium excretion and the potassium excretion in comparison with the control animals (i.e. in comparison with the animals treated only with aldosterone). Moreover, the Table contains data relating to the acute toxicity of the benzodiazepine derivatives investigated (LD 50 in mg/kg in the case of a single oral administration to mice).

Series [1] can be described thus: acute toxicity, single oral administration to mice. Particulars: mouse, in vivo, p.o.
Source text: as §1

[2] abbreviates: read-out: potassium excretion [K+], in %, based on control animals.
[3] abbreviates: read-out: sodium excretion [Na+], in %, based on control animals.
The mark [4] stands for this setting: read-out: urine volume, in %, based on control animals.
Setting [5] is: aldosterone alone, in comparison with untreated animals.

Like-named read-outs stand apart in the source and are kept apart here. Bounds are passed on as bounds.

Take `CC(CO)NC(=O)Nc1ccc2c(c1)C(c1ccccc1F)=NCC(=O)N2C` (racemic) [Example 8, rac-1-[5-(o-fluorophenyl)-2,3-dihydro-1-methyl-2-oxo-1H-1,4-benzodiazepin-7-yl]-3-(2-hydroxy-1-methylethyl)urea]: the figures for the response vs control in vivo at 1 mg/kg with aldosterone (setting [2]), with aldosterone (setting [3]) and with aldosterone (setting [4]) were 80%, 127% and 73%, respectively. Besides, the response vs control in vivo at 10 mg/kg is 129% in the series with aldosterone (setting [2]), 452% in the series with aldosterone (setting [3]) and 200% with aldosterone (setting [4]). Besides, in series [1], the LD50 is > 5000 mg/kg.
Turning to `CNC(=O)Nc1ccc2c(c1)C(c1ccccc1F)=NCC(=O)N2C` [Example 1, 1-[5-(o-Fluorophenyl)-2,3-dihydro-1-methyl-2-oxo-1H-1,4-benzodiazepin-7-yl]-3-methylurea], the response vs control in vivo at 3 mg/kg in the series with aldosterone (setting [2]) was 84%; in the series on aldosterone (setting [3]), 182%; with aldosterone (setting [4]) it was 95%. Moreover, in series [1], the LD50 is > 5000 mg/kg.
As for `CN1C(=O)CN=C(c2ccccc2F)c2cc(NC(=O)NC(C)(C)C)ccc21` [Example 2, 1-tert.butyl-3-[5-(o-fluorophenyl)-2,3-dihydro-1-methyl-2-oxo-1H-1,4-benzodiazepin-7-yl]urea], the response vs control in vivo at 1 mg/kg with aldosterone (setting [2]) worked out at 132%; in the series with aldosterone (setting [3]), 236%; in the series with aldosterone (setting [4]), 194%. Moreover, the response vs control in vivo at 10 mg/kg was 70% in the series with aldosterone (setting [2]), 234% with aldosterone (setting [3]) and 105% in the series with aldosterone (setting [4]). The median lethal dose (LD50) in series [1] lay in the range of 600 to 1200 mg/kg.
`CN1C(=O)CN=C(c2ccccc2F)c2cc(NC(=O)NCc3ccccc3)ccc21` [Example 3, 1-benzyl-3-[5-(o-fluorophenyl)-2,3-dihydro-1-methyl-2-oxo-1H-1,4-benzodiazepin-7-yl]urea]: the response vs control in vivo at 1 mg/kg was 153% with aldosterone (setting [2]), 255% in the series with aldosterone (setting [3]) and 139% in the series on aldosterone (setting [4]). Further, the LD50 in series [1] is > 5000 mg/kg.
As to `CCN(C)C(=O)Nc1ccc2c(c1)C(c1ccccc1F)=NCC(=O)N2C` [Example 4, 1-ethyl-3-[5-(o-fluorophenyl)-2,3-dihydro-1-methyl-2-oxo-1H-1,4-benzodiazepin-7-yl]-1-methylurea], the response vs control in vivo at 1 mg/kg in the series on aldosterone (setting [2]) turned out to be 97%; with aldosterone (setting [3]), 291%; in the series on aldosterone (setting [4]), 100%. In addition, the LD50 in series [1] was > 5000 mg/kg.
For the compound `CN1C(=O)CN=C(c2ccccc2F)c2cc(NC(=O)N3CC3)ccc21` [Example 5, N-[5-(o-fluorophenyl)-2,3-dihydro-1-methyl-2-oxo-1H-1,4-benzodiazepin-7-yl]-1-aziridinecarboxamide], the results for the response vs control in vivo at 1 mg/kg in the series with aldosterone (setting [2]), in the series on aldosterone (setting [3]) and with aldosterone (setting [4]) were 146%, 294% and 192%, respectively. Moreover, the results for the response vs control in vivo at 10 mg/kg with aldosterone (setting [2]), in the series with aldosterone (setting [3]) and in the series with aldosterone (setting [4]) were 108%, 237% and 129%, respectively. In addition, in series [1], the LD50 was > 5000 mg/kg.
For `CN1C(=O)CN=C(c2ccccc2F)c2cc(NC(=O)N3CCCC3)ccc21` [Example 6, N-[5-(o-fluorophenyl)-2,3-dihydro-1-methyl-2-oxo-1H-1,4-benzodiazepin-7-yl]-1-pyrrolidinecarboxamide], the response vs control in vivo at 1 mg/kg in the series on aldosterone (setting [2]) was 112%; in the series on aldosterone (setting [3]) it was 308%; with aldosterone (setting [4]), 184%. The 50% lethal dose (LD50) in series [1] was > 5000 mg/kg.
For the compound `CN1C(=O)CN=C(c2ccccc2F)c2cc(NC(=O)NCCO)ccc21` [Example 7, 1-[5-(o-fluorophenyl)-2,3-dihydro-1-methyl-2-oxo-1H-1,4-benzodiazepin-7-yl]-3-(2-hydroxyethyl)urea], the response vs control in vivo at 0.1 mg/kg was found to be 121% in the series with aldosterone (setting [2]), 247% in the series with aldosterone (setting [3]) and 85% with aldosterone (setting [4]). The LD50 in series [1] is > 5000 mg/kg.
Turning to `CNC(=O)Nc1ccc2c(c1Cl)C(c1ccccc1F)=NCC(=O)N2C` [Example 9, 1-[6-chloro-5-(o-fluorophenyl)-2,3-dihydro-1-methyl-2-oxo-1H-1,4-benzodiazepin-7-yl]-3-methylurea], the response vs control in vivo at 1 mg/kg in the series on aldosterone (setting [2]) is 91%; with aldosterone (setting [3]) it was 330%; in the series with aldosterone (setting [4]), 178%. The compound further displayed an LD50 in series [1] of 1250 to 2500 mg/kg.
As to `CCCCNC(=O)Nc1ccc2c(c1Cl)C(c1ccccc1F)=NCC(=O)N2C` [Example 10, 1-butyl-3-[6-chloro-5-(o-fluorophenyl)-2,3-dihydro-1-methyl-2-oxo-1H-1,4-benzodiazepin-7-yl]urea], the response vs control in vivo at 1 mg/kg in the series on aldosterone (setting [2]) is 104%; in the series with aldosterone (setting [3]) it was 380%; in the series on aldosterone (setting [4]), 175%. Further, in series [1], the median lethal dose (LD50) is > 5000 mg/kg.
Regarding `CCN(CC)C(=O)Nc1ccc2c(c1Cl)C(c1ccccc1F)=NCC(=O)N2C` [Example 11, 3-[6-chloro-5-(o-fluorophenyl)-2,3-dihydro-1-methyl-2-oxo-1H-1,4-benzodiazepin-7-yl]-1,1-diethylurea], the response vs control in vivo at 10 mg/kg turned out to be 110% in the series with aldosterone (setting [2]), 236% in the series with aldosterone (setting [3]) and 124% in the series with aldosterone (setting [4]). In addition, in series [1], the median lethal dose (LD50) was > 5000 mg/kg.
For the compound `CCN(C)C(=O)Nc1ccc2c(c1Cl)C(c1ccccc1F)=NCC(=O)N2C` [Example 12, 3-[6-chloro-5-(o-fluorophenyl)-2,3-dihydro-1-methyl-2-oxo-1H-1,4-benzodiazepin-7-yl]-1-ethyl-1-methylurea], the response vs control in vivo at 1 mg/kg with aldosterone (setting [2]) worked out at 118%; in the series with aldosterone (setting [3]), 278%; in the series with aldosterone (setting [4]) it was 136%. The same compound had a median lethal dose (LD50) in series [1] of 2500 to 5000 mg/kg.
Turning to `CN1C(=O)CN=C(c2ccccc2F)c2c1ccc(NC(=O)NCCO)c2Cl` [Example 13, 1-[6-chloro-5-(o-fluorophenyl)-2,3-dihydro-1-methyl-2-oxo-1H-1,4-benzodiazepin-7-yl]-3-(2-hydroxyethyl)urea], the response vs control in vivo at 1 mg/kg in the series on aldosterone (setting [2]) came to 110%; in the series on aldosterone (setting [3]), 242%; with aldosterone (setting [4]) it was 140%. Moreover, the LD50 in series [1] was > 5000 mg/kg.
In the case of `CN(C)C(=O)Nc1ccc2c(c1)C(c1ccccc1F)=NCC(=O)N2C` [Example 32, 3-[5-(o-fluorophenyl)-2,3-dihydro-1-methyl-2-oxo-1H-1,4-benzodiazepin-7-yl]-1,1-dimethylurea], the response vs control in vivo at 10 mg/kg was 91% in the series on aldosterone (setting [2]), 190% in the series on aldosterone (setting [3]) and 102% with aldosterone (setting [4]). For the same compound, the 50% lethal dose (LD50) in series [1] was > 5000 mg/kg.
Consider `COc1ccc(NC(=O)Nc2ccc3c(c2)C(c2ccccc2F)=NCC(=O)N3C)cc1` [Example 33, 1-[5-(o-fluorophenyl)-2,3-dihydro-1-methyl-2-oxo-1H-1,4-benzodiazepin-7-yl]-3-(p-methoxyphenyl)urea], for which the response vs control in vivo at 10 mg/kg with aldosterone (setting [2]) is 145%; with aldosterone (setting [3]), 240%; with aldosterone (setting [4]), 117%. For the same compound, in series [1], the LD50 is > 5000 mg/kg.
`C[C@]12CCC(=O)C=C1CC[C@@H]1[C@@H]2[C@@H](O)C[C@]2(C=O)[C@@H](C(=O)CO)CC[C@@H]12` [aldosterone, reference compound]: in the series with aldosterone (setting [5]), the excreted urine volume entry is recorded as “reduction of the excreted urine volume”, the potassium excretion result is recorded as “increased potassium excretion” and the sodium excretion entry is given as “pronounced reduction of the sodium excretion”.

For orientation: LD50 means the dose at which mortality reaches 50%. Higher therefore signals lower toxicity.

The values are drawn from patent publication US4299767A, “Benzodiazepine derivatives” (Hoffmann-La Roche Inc., priority 1978, dated 1981).
